Where two headings read alike, the source gives them in different places.
Tests used:
Assay type in all cases: in vivo
[1] = system: Blumeria graminis f. sp. hordei; test: Blumeria test (barley)/SAR 5d; conditions: 1000 ppm, evaluated 7 days after inoculation
[2] = system: larvae of the Brown plant hopper (Nilaparvata lugens); test: Nilaparvata lugens - test (sprayed rice plants); conditions: mortality
Description: (§1) Solvent: 7 parts by weight of dimethylformamide
(§2) Emulsifier: 2 parts by weight of alkylaryl polyglycolether
(§3) To produce a suitable preparation of active compound, 1 part by weight of active compound is mixed with the stated amount of solvent and emulsifier, and the concentrate is diluted with emulsifier-containing water to the desired concentration.
Rice plants (Oryza sativa) are treated by being sprayed with the preparation of the active compound at the desired concentration and are infested with larvae of the Brown plant hopper (Nilaparvata lugens) as long as the leaves are still moist.
After the specified period of time, the mortality in % is determined. 100% means that all the hopper larvae have been killed; 0% means that none of the hopper larvae have been killed.

[3] = system: larvae of the mustard beetle (Phaedon cochleariae); test: Phaedon cochleariae - test (sprayed cabbage leaves); conditions: for Efficacy in % after 3d: Table C-1, mortality; for Efficacy in % after 4d: Table C-2, mortality; for Efficacy in % after 6d: Table C-3, mortality
Description: as §1, §2, §3
Cabbage leaves (Brassica oleracea) are treated by being sprayed with the preparation of the active compound at the desired concentration and are infested with larvae of the mustard beetle (Phaedon cochleariae) as long as the leaves are still moist.
After the specified period of time, the mortality in % is determined. 100% means that all the beetle larvae have been killed; 0% means that none of the beetle larvae have been killed.

[4] = system: larvae of the fall army worm (Spodoptera frugiperda); test: Spodoptera frugiperda - test (sprayed cabbage leaves); conditions: mortality
Description: as §1, §2, §3
Cabbage leaves (Brassica oleracea) are treated by being sprayed into the preparation of the active compound of the desired concentration and are infested with larvae of the fall army worm (Spodoptera frugiperda) as long as the leaves are still moist.
After the specified period of time, the mortality in % is determined. 100% means that all the caterpillars have been killed; 0% means that none of the caterpillars have been killed.

[5] = system: rice blast (Pyricularia oryzae); conditions: 20 ppm, inoculated 1 day after spraying, evaluated 5 days after inoculation
[6] = system: rice blast (Pyricularia oryzae); conditions: 100 ppm, inoculated 5 days after spraying, evaluated 7 days after inoculation

SMILES | Efficacy in % ([1]; Table A-1, 1st leaf) [%] | Efficacy in % ([1]; Table A-2, printed 1st leaf) [%] | Efficacy in % [5] [%] | Efficacy in % [6] [%] | Efficacy in % after 4d ([3]; 4 ppm) [%] | Efficacy in % after 3d ([2]; 4 ppm) [%] | other results
N#Cc1ccccc1NC(=O)c1snc(Cl)c1Cl [Isotianil, 3,4-dichloro-N-(2-cyanophenyl)-5-isothiazolecarboxamide] | 44 | 44 | 35 | 43 |  |  | Efficacy in % after 3d ([2]; 200 ppm): 0%; Efficacy in % after 3d ([3]; 200 ppm): 0%; Efficacy in % after 4d ([3]; 200 ppm): 15%; Efficacy in % after 6d ([3]; 200 ppm): 0%; Efficacy in % after 6d ([4]; 200 ppm): 0%
N#C/N=C1\SCCN1Cc1ccc(Cl)nc1 [Thiacloprid, thiacloprid] |  |  |  |  | 45 |  | 
CN/C(=N\[N+](=O)[O-])NCc1cnc(Cl)s1 [Clothianidin, clothianidin] |  |  |  |  |  | 90 | Efficacy in % after 4d ([3]; 20 ppm): 70%; Efficacy in % after 6d ([3]; 4 ppm): 90%
C/C(=N\C#N)N(C)Cc1ccc(Cl)nc1 [Acetamiprid, acetamiprid] |  |  |  |  |  |  | Efficacy in % after 6d ([4]; 0.16 ppm): 15%
CNC(=O)c1cc(Cl)cc(C)c1NC(=O)c1cc(Br)nn1-c1ncccc1Cl [Chlorantraniliprole, chlorantraniliprole] | 11 | 0 | 0 | 0 | 70 | 0 | Efficacy in % after 3d ([3]; 0.16 ppm): 0%; Efficacy in % after 4d ([3]; 0.8 ppm): 45%; Efficacy in % after 6d ([3]; 0.8 ppm): 15%; Efficacy in % after 6d ([4]; 0.032 ppm): 15%
O=[N+]([O-])NC1=NCCN1Cc1ccc(Cl)nc1 [Imidacloprid, imidacloprid] |  |  | 0 | 0 |  |  | Efficacy in % after 3d ([3]; 4 ppm): 0%

Source: patent US8883180B2 (priority 2007, dated 2014)
